Tested on: E. coli strain W3110
Assay: Synergy assays: Biolog chemical sensitivity panels with Group IB metal, coefficient of drug interaction (CDI) from relative growth
Assay type: cell-based
Conditions: for CDI (coefficient of drug interaction), gold + biocide: Gold (μM); for CDI (coefficient of drug interaction), copper mixed with biocide: Copper (mM) section
[1] = Copper (mM), 1st of 3 copper concentrations (head line not shown), biocide concentration 4 of 4, E. coli
[2] = Copper (mM), 2nd of 3 copper concentrations (head line not shown), biocide concentration 4 of 4, E. coli
[3] = Copper (mM), 3rd of 3 copper concentrations (head line not shown), biocide concentration 4 of 4, E. coli
[4] = first of 3 gold concentrations, biocide concentration 3 of 4
[5] = first of 3 gold concentrations, biocide concentration 4 of 4
[6] = second of 3 gold concentrations, biocide concentration 3 of 4
[7] = second of 3 gold concentrations, biocide concentration 4 of 4
[8] = third of 3 gold concentrations, biocide concentration 3 of 4
[9] = third of 3 gold concentrations, biocide concentration 4 of 4
[10] = Silver 0.5 μM, biocide concentration 3 of 4
[11] = Silver 0.5 μM, biocide concentration 4 of 4
[12] = Silver 1.0 μM, biocide concentration 3 of 4
[13] = Silver 1.0 μM, biocide concentration 4 of 4
[14] = Silver 5.0 μM, biocide concentration 3 of 4
[15] = Silver 5.0 μM, biocide concentration 4 of 4
[16] = 2nd of 3 copper concentrations (value not shown), 4th of four biocide concentrations
[17] = Silver 0.5 μM, 3rd of four biocide concentrations, E. coli
[18] = Silver 0.5 μM, 4th of four biocide concentrations, E. coli
[19] = Silver 1.0 μM, 3rd of four biocide concentrations, E. coli
[20] = Silver 1.0 μM, 4th of four biocide concentrations, E. coli
[21] = Silver 5.0 μM, 3rd of four biocide concentrations, E. coli
[22] = Silver 5.0 μM, 4th of four biocide concentrations, E. coli

## N.N.N.N.N.N.N.N.N.N.N.N.N.N.[Cl-].[Cl-].[Cl-].[Cl-].[Cl-].[Cl-].[O-2].[O-2].[Ru+3].[Ru+3].[Ru+4] [ruthenium red]
Copper (mM), 1st of 3 copper concentrations (head line not shown), biocide concentration 1 of 4, E. coli
  CDI (coefficient of drug interaction): 0.73
Copper (mM), 1st of 3 copper concentrations (head line not shown), biocide concentration 2 of 4, E. coli
  CDI (coefficient of drug interaction): 0.60
Copper (mM), 1st of 3 copper concentrations (head line not shown), biocide concentration 3 of 4, E. coli
  CDI (coefficient of drug interaction): 0.51
[1]
  CDI (coefficient of drug interaction): 0.50
Copper (mM), 2nd of 3 copper concentrations (head line not shown), biocide concentration 1 of 4, E. coli
  CDI (coefficient of drug interaction): 0.52
Copper (mM), 2nd of 3 copper concentrations (head line not shown), biocide concentration 2 of 4, E. coli
  CDI (coefficient of drug interaction): 0.47
Copper (mM), 2nd of 3 copper concentrations (head line not shown), biocide concentration 3 of 4, E. coli
  CDI (coefficient of drug interaction): 0.37
[2]
  CDI (coefficient of drug interaction): 0.30
Copper (mM), 3rd of 3 copper concentrations (head line not shown), biocide concentration 1 of 4, E. coli
  CDI (coefficient of drug interaction): 0.45
Copper (mM), 3rd of 3 copper concentrations (head line not shown), biocide concentration 2 of 4, E. coli
  CDI (coefficient of drug interaction): 0.38
Copper (mM), 3rd of 3 copper concentrations (head line not shown), biocide concentration 3 of 4, E. coli
  CDI (coefficient of drug interaction): 0.33
[3]
  CDI (coefficient of drug interaction): 0.29
First of 3 gold concentrations, biocide concentration 1 of 4
  CDI (coefficient of drug interaction), gold + biocide: 1.04
First of 3 gold concentrations, biocide concentration 2 of 4
  CDI (coefficient of drug interaction), gold + biocide: 0.94
[4]
  CDI (coefficient of drug interaction), gold + biocide: 1.05
[5]
  CDI (coefficient of drug interaction), gold + biocide: 1.06
Second of 3 gold concentrations, biocide concentration 1 of 4
  CDI (coefficient of drug interaction), gold + biocide: 1.03
Second of 3 gold concentrations, biocide concentration 2 of 4
  CDI (coefficient of drug interaction), gold + biocide: 1.02
[6]
  CDI (coefficient of drug interaction), gold + biocide: 1.14
[7]
  CDI (coefficient of drug interaction), gold + biocide: 1.07
Third of 3 gold concentrations, biocide concentration 1 of 4
  CDI (coefficient of drug interaction), gold + biocide: 1.08
Third of 3 gold concentrations, biocide concentration 2 of 4
  CDI (coefficient of drug interaction), gold + biocide: 1.05
[8]
  CDI (coefficient of drug interaction), gold + biocide: 1.13
[9]
  CDI (coefficient of drug interaction), gold + biocide: 1.09
Silver 0.5 μM, biocide concentration 1 of 4
  CDI: 0.78
Silver 0.5 μM, biocide concentration 2 of 4
  CDI: 0.79
[10]
  CDI: 0.75
[11]
  CDI: 0.69
Silver 1.0 μM, biocide concentration 1 of 4
  CDI: 0.87
Silver 1.0 μM, biocide concentration 2 of 4
  CDI: 0.89
[12]
  CDI: 0.83
[13]
  CDI: 0.34
Silver 5.0 μM, biocide concentration 1 of 4
  CDI: 0.68
Silver 5.0 μM, biocide concentration 2 of 4
  CDI: 0.34
[14]
  CDI: 0.38
[15]
  CDI: 0.19

## C[n+]1cc2c3c(ccc2c2ccc4cc5c(cc4c21)OCO5)OCO3 [sanguinarine]
1st of 3 copper concentrations (value not shown), 4th of four biocide concentrations
  CDI (coefficient of drug interaction), copper mixed with biocide: Tox
2nd of 3 copper concentrations (value not shown), 3rd of four biocide concentrations
  CDI (coefficient of drug interaction), copper mixed with biocide: Tox
[16]
  CDI (coefficient of drug interaction), copper mixed with biocide: Tox
3rd of 3 copper concentrations (value not shown), 4th of four biocide concentrations
  CDI (coefficient of drug interaction), copper mixed with biocide: Tox
Gold section of Table 5, first of three gold concentrations (μM, value not given), biocide concentration 3 of 4
  CDI (coefficient of drug interaction): Tox
Gold section of Table 5, first of three gold concentrations (μM, value not given), biocide concentration 4 of 4
  CDI (coefficient of drug interaction): Tox
Gold section of Table 5, second of three gold concentrations (μM, value not given), biocide concentration 3 of 4
  CDI (coefficient of drug interaction): Tox
Gold section of Table 5, second of three gold concentrations (μM, value not given), biocide concentration 4 of 4
  CDI (coefficient of drug interaction): Tox
Gold section of Table 5, third of three gold concentrations (μM, value not given), biocide concentration 3 of 4
  CDI (coefficient of drug interaction): Tox
Gold section of Table 5, third of three gold concentrations (μM, value not given), biocide concentration 4 of 4
  CDI (coefficient of drug interaction): Tox
[17]
  CDI (coefficient of drug interaction), silver + biocide: Tox
[18]
  CDI (coefficient of drug interaction), silver + biocide: Tox
[19]
  CDI (coefficient of drug interaction), silver + biocide: Tox
[20]
  CDI (coefficient of drug interaction), silver + biocide: Tox
[21]
  CDI (coefficient of drug interaction), silver + biocide: Tox
[22]
  CDI (coefficient of drug interaction), silver + biocide: Tox

## NNC(N)=O [semicarbazide]
[16]
  CDI (coefficient of drug interaction), copper mixed with biocide: Tox
[17]
  CDI (coefficient of drug interaction), silver + biocide: Tox
[18]
  CDI (coefficient of drug interaction), silver + biocide: Tox
[19]
  CDI (coefficient of drug interaction), silver + biocide: Tox
[20]
  CDI (coefficient of drug interaction), silver + biocide: Tox
[21]
  CDI (coefficient of drug interaction), silver + biocide: Tox
[22]
  CDI (coefficient of drug interaction), silver + biocide: Tox

## CCCCCCCC(=O)[O-].[Na+] [sodium caprylate]
[1]
  CDI (coefficient of drug interaction): Tox
[2]
  CDI (coefficient of drug interaction): Tox
[3]
  CDI (coefficient of drug interaction): Tox
[4]
  CDI (coefficient of drug interaction), gold + biocide: Tox
[5]
  CDI (coefficient of drug interaction), gold + biocide: Tox
[6]
  CDI (coefficient of drug interaction), gold + biocide: Tox
[7]
  CDI (coefficient of drug interaction), gold + biocide: Tox
[8]
  CDI (coefficient of drug interaction), gold + biocide: Tox
[9]
  CDI (coefficient of drug interaction), gold + biocide: Tox
[10]
  CDI: Tox
[11]
  CDI: Tox
[12]
  CDI: Tox
[13]
  CDI: Tox
[14]
  CDI: Tox
[15]
  CDI: Tox

## Nc1ccc(S(=O)(=O)Nc2ncccn2)cc1 [sulfadiazine]
  cell toxicity / growth curves with and without silver: enhanced cell toxicity
